Experimental data reported in paper PMC7838189, “Natural podophyllotoxin analog 4DPG attenuates EMT and colorectal cancer progression via activation of checkpoint kinase 2” (Cell Death Discovery, 2021).
In brackets after ≈: the same amount, converted by molar mass.

Columns and labels:
SW-620/5-FU-R cells = experiment: Cellular fractionation and western blotting of p53 and Vimentin; format: cell-based; details: 300 nM, 48 h, vs vehicle
Experimental: Fig. 3 Chk2-dependent role of 4DPG in modulating p53 and repressing Vimentin expression in 5-FU-R cells. A Immunocytochemistry results showing the Vimentin expression level in SW-620/5-FU-R cells treated/transfected with scramble, SiChk2, scramble plus 4DPG, SiChk2 plus 4DPG, vehicle, PV1019, 4DPG, and PV1019 plus 4DPG for 48 h. Scale bars: 50 µm. […] C Matrigel invasion assay results showing invaded HCT-116/5-FU-R and SW-620/5-FU-R cells following 48 h of transient transfection with GFP and GFP-Chk2 plasmid construct. Scale bars: 50 µm. D Quantification of the number of invaded cells per field from the above experimental conditions. n = 3, error bars, mean ± SD; *P < 0.05, ***P < 0.001. E Immunocytochemistry results displaying Vimentin expression levels in HCT-116/5-FU-R and SW-620/5-FU-R cells after 48 h of transient transfection with pCDNA3 and/or HA-Chk2 plasmid construct. Scale bars: 50 µm. F Immunoprecipitation with Vimentin or p53 followed by western blotting analysis of p53 in SW-620/5-FU-R cells treated with vehicle and/or 4DPG (300 nM) for 48 h. G Cytosolic (left panel) and nuclear (right panel) extracts of SW-620/5-FU-R cells treated with vehicle and/or 4DPG (300 nM) for 48 h showing protein expression of Vimentin and p53. Tubulin and lamin expression was considered as endogenous loading controls for cytosolic and nuclear fractions, respectively.
Moreover, to gain mechanistic insights into how 4DPG-induced activation of Chk2 suppresses EMT and invasiveness, we examined the downstream substrates of Chk2. Tumor suppressor p53 acts as a direct substrate of Chk2 that regulates cell cycle, DNA repair, or apoptosis of cancer cells in response to DNA damage[27],[39]. We attempted to investigate whether there any molecular interaction takes place between Vimentin and p53 in these 5-FU-R cells. Our immunoprecipitation analysis unveiled that 4DPG potentially interrupted the association of Vimentin and p53 in SW-620/5-FU-R cells. […] Since 4DPG disrupted the Vimentin–p53 association, we were curious to see the consequences on p53 expression in various cellular compartments. We separated cytosolic and nuclear fractions of SW-620/5-FU-R cells treated with vehicle and/or 4DPG and conducted western blotting analysis considering relevant loading controls.
SW-620/5-FU-R cells seeded in 90-mm Petri dishes were treated with vehicle and/or 4DPG for 48 h, following overnight incubation. Cells were then harvested, washed with PBS; cytosolic and nuclear extracts were prepared following our established protocol[37],[56].

Solubility determination = format: physicochemical
Experimental: (§1) Solubility and distribution coefficient are among the major physicochemical properties of a drug that greatly determine its absorption in physiological compartments. […] The distribution coefficient (logD, pH 7.4) of 4DPG was determined to be 0.815 ± 0.19, which indicates the slightly lipophilic nature of the molecule. For administration to animals, the appropriate quantity of 4DPG was formulated in the pre-calculated volume of saline with the help of a solubilizer (Tween-80). Next, to assess the hemocompatibility of 4DPG and establish if the compound could be considered safe for intravenous (i.v.) administration, we performed in vitro hemolysis assay by incubating the RBCs with increasing concentrations of the molecule.
(§2) The distribution coefficient, solubility, and hemocompatibility of 4DPG was determined adopting our previously described protocol[37],[40]. For hemolysis assay, increasing concentrations (5, 10, and 20 µg/mL) of 4DPG were employed. Distilled water (DW) and PBS were considered as […].

[1] = Distribution coefficient determination; format: physicochemical; details: pH 7.4
Experimental: as §1, §2

[2] = system: orthotopic rat colorectal carcinoma; details: 25 mg/kg thrice a week for 3 weeks
Source text: To examine the antitumor and anti-metastatic efficacy of 4DPG in vivo, we employed a carcinogen-induced orthotopic rat colorectal carcinoma model. […] The schematic representation briefly describes the steps involved in the generation of orthotopic colorectal tumors along with the treatment strategy and further analysis (details in “Materials and methods”). The animals were euthanized at the end of the experiment and evaluated for tumor and metastatic burden (Fig. 4A). […] To validate whether our in vitro observations on mechanistic inhibition of EMT and invasion by 4DPG hold true in vivo, we performed immunohistochemical analysis of the tumor tissues acquired from the saline and 4DPG-treated animal groups.
A Model depicting the procedure adopted for generating the carcinogen-induced orthotopic rat CRC model, treatment strategies of 4DPG, evaluation of tumor burden, and further biochemical analysis. B Representative images of large bowel showing the colorectal tumor growth in saline, 5-FU (25 mg/kg), and 4DPG (25 mg/kg) treated groups of animals. C, D Quantification of tumor volume and number of polyps per rat in above groups of animals. n = 6 rats per group, error bars: mean ± SD; *P < 0.05, **P < 0.01, ***P < 0.001. E Representative images of the lungs dissected from the above groups of animals showing metastatic tumor burden. Orange arrows indicating bumps of secondary tumors over each lobe of lungs. F, G Quantification of a number of macroscopic secondary tumors over the lung tissues and lung weight in the above groups of animals. n = 6 rats per group, error bars, mean ± SD; **P < 0.01, ***P < 0.001. […] Scale bar: 50 µm. I Western blots depicting expression of p-Chk2 (Thr68), Chk2, p53, p-Vimentin (Ser38), and Vimentin in tumor tissues obtained from saline- and 4DPG-treated groups of animals. β-Actin expression was taken as endogenous loading control. J Densitometry analysis of the above western blot bands portraying relative protein expression of the markers presented. n = 3, error bars: mean ± SD; **P < 0.01, ***P < 0.001.
Animal studies were performed following the guidelines approved by Institutional Animal Ethics Committee (IAEC No. 51/02/15) of CSIR-Indian Institute of Integrative Medicine, Jammu, India. The experiment was performed according to our standardized protocol described previously with necessary modifications. Five-weeks-old healthy male Wistar rats (body weight 150–200 g) were maintained in aseptic condition with free access to food and water. Animals were randomized into three groups, with six animals per group. All the rats received intrarectal instillation of 0.5 mL of freshly prepared 0.4% aqueous solution of N-methyl-N-nitrosourea (MNU) thrice a week for 3 weeks, for the orthotopic induction of colorectal tumors. The solution was injected using sterile syringe with attached 8-cm long rubber catheter tube inserted two-thirds into the colon lumen through anal orifice, as described previously. The animals were kept under continuous monitoring, and the body weight was measured once per week. Following 22 weeks after the initiation of MNU administration, treatment regimens were started by administering 5-FU (25 mg/kg), and 4DPG (25 mg/kg) thrice a week for 3 weeks. The control and treatment groups of animals were dosed separately by three independent investigators and the outcomes were assessed by a fourth investigator blind about the dosing process and treatment regimen.

## COc1cc([C@@H]2c3cc4c(cc3C[C@H]3COC(=O)[C@@H]32)OCO4)cc(OC)c1O[C@@H]1O[C@H](CO)[C@@H](O)[C@H](O)[C@H]1O [4DPG, 4′-demethyl-deoxypodophyllotoxin glucoside]
SW-620/5-FU-R cells
  augmentation in p53 expression, cytosolic fraction: 1.65 fold
  decrease in Vimentin level, nuclear fraction: 20 fold
  downregulation of Vimentin level, cytosolic fraction: 2.2 fold
  increase in p53, nuclear fraction: 2.2 fold
Solubility determination; simulated gastric fluid (SGF, pH 1.2)
  solubility: 539.38 ± 91 µg/mL (≈ 987 µM)
Solubility determination; simulated intestinal fluid (SIF, pH 6.8)
  solubility: 712.92 ± 172 µg/mL (≈ 1300 µM)
[1]
  distribution coefficient (logD): 0.815 ± 0.19
[2]
  lung metastases: strongly prevented the development of lung metastases
[2]; until end of experiment
  drug-related toxicity/adverse effects: without any drug-related toxicity/adverse effects
[2]; control group 16
  average number of polyps: 3
[2]; saline control 820.6 mm^3
  mean tumor volume: 116.8 mm^3
